Patent US10329262B2, “Quinazolinone antibiotics” (priority 2013, dated 2019)
Read-outs that look alike come from different tables or passages of the source.

What was measured:
PBP2a = molecular target: T1, PBP2a (Staphylococcus aureus, UniProt Q53707); experiment: Bocillin FL competition assay, purified recombinant PBP2a; format: binding, S. aureus
T1 construct: PBP2a was purified using a previously described protocol (Fuda et al., J. Biol. Chem. 279, 40802-40806 (2004)); made in house
Excerpt: We next explored if it would inhibit purified recombinant PBP2a by a competition assay with Bocillin FL, a fluorescent penicillin reporter reagent. We purified PBP2a for this study using a previously described protocol from the laboratory of Prof. Mobashery (Fuda et al., J. Biol. Chem. 2004, 279, 40802-40806). This inhibition assay for PBPs has the limitation in that Bocillin FL is a covalent modifier of the active site of PBPs and the equilibrium is inexorably in favor of the irreversible acylation of the active-site serine by the reporter molecule. As such, the degree of inhibition by the non-covalent inhibitor (e.g., 2) will be underestimated.
This inhibition assay for PBPs has the limitation in that Bocillin FL is a covalent modifier of the active site of PBPs and the equilibrium is inexorably in favor of the irreversible acylation of the active-site serine by the reporter molecule. As such, the degree of inhibition by the non-covalent inhibitor (e.g., 2) will be underestimated. This is what was seen.
The Bocillin FL competition assays were performed with purified PBP2a and membrane extracts. […] Samples were centrifuged, loaded to SDS-PAGE, the gels were visualized immediately using a Storm840 Scanner, and fluorescence was quantified using ImageQuant software. IC50 values were calculated using GraphPad prism 5, using the previously published equation.

S. aureus NRS123 = experiment: MIC, broth microdilution, S. aureus NRS123; format: cell-based; settings: Staphylococcus aureus
Description: (§1) MICs were evaluated following the CLSI microdilution method in BBL™ Mueller-Hinton II broth (Wikler et al., Clinical Laboratory Standards Institute Document M7-A7, 29 (2009)). Briefly, two-fold serial dilutions of compound were prepared in triplicate in 96-well plates and inoculated with 5×10^5 cfu/mL of the bacterial suspension. Plates were incubated at 37° C. for 16-20 hours.

S. aureus NRS120 = experiment: MIC, CLSI broth microdilution, S. aureus NRS120; format: cell-based, Staphylococcus aureus
Description: as §1

PBP2a allosteric site = molecular target: T2, PBP2a allosteric site (Staphylococcus aureus, UniProt Q53707); experiment: Intrinsic fluorescence quenching of oxacillin-acylated PBP2a; format: binding, S. aureus
T2 construct: made in house
T2 sequence (Q53707 entry or part of it): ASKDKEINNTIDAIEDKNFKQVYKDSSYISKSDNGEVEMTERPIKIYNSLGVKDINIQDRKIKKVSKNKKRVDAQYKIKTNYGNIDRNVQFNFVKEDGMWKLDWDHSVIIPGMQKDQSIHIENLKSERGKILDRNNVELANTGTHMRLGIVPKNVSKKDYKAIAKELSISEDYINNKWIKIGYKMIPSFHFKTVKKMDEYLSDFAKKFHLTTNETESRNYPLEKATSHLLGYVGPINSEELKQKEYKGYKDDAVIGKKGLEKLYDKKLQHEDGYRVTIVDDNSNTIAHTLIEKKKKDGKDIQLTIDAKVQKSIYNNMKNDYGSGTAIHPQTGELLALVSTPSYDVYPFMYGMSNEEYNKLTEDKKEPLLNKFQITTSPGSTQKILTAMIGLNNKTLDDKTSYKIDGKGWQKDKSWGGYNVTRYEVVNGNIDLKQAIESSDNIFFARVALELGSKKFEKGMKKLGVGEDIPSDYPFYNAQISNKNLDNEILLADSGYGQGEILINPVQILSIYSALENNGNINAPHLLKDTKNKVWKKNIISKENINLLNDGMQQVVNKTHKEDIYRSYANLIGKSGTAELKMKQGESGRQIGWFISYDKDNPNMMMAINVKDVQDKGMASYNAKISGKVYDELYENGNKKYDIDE
Description: FIG. 11. Binding of quinazolinone 2 to PBP2a allosteric site. […] (a) The change in the maximum fluorescence intensity was calculated as the difference compared to the intensity in the absence of compound. Any dilution effect was subtracted out using a buffer titration control. […] A nonlinear regression was used to fit the data, with an R^2 of 0.9997. (b) Emission scans of PBP2a intrinsic fluorescence with excitation at 280 nm. Antibiotic 2 was titrated in to give the final concentrations shown and 3 scans (1 min cycles) were averaged for each titration.
Therefore, we have evidence for binding of antibiotic 2 to the allosteric site (X-ray) and to the active site (kinetic assays for competitive inhibition and X-ray altered conformations for the active-site residues) of PBP2a). Binding of antibiotic 2 at the allosteric site induces conformational changes at the active site (FIG. 7B). All of these movements serve to double the area and the volume of the active site.
Therefore, we have evidence for binding of the antibiotic 2 to the allosteric site (X-ray) and to the active site (kinetic assays for competitive inhibition and X-ray altered conformations for the active-site residues) of PBP2a. Binding of antibiotic 2 at the allosteric site induces conformational changes at the active site (FIG. 7b). All of these movements serve to double the area and volume of the active site.

S. aureus VRS2 = experiment: MIC, CLSI broth microdilution, S. aureus VRS2; format: cell-based, Staphylococcus aureus
Description: as §1

S. aureus NRS128 = experiment: MIC, CLSI broth microdilution, S. aureus NRS128; format: cell-based, Staphylococcus aureus; settings: Table 2.1, S. aureus NRS128
Description: as §1

Plasma stability = format: in vitro ADME; settings: mouse, 37° C.
Description: Compound 2 (20 μM) was incubated in blank mouse plasma at 37° C. and aliquots were taken at specific time points and quenched with two volumes of acetonitrile containing internal standard. Samples were centrifuged and analyzed by reverse-phase UPLC.

S. aureus (ATCC 29213) = experiment: Macromolecular synthesis assays; format: cell-based, Staphylococcus aureus
Excerpt: Mechanism of Action of the Quinazolinones. The mode of action of 2 was investigated by macromolecular synthesis assays in S. aureus in the logarithmic phase, which monitor incorporation of radiolabeled precursors [methyl-^3H]-thymidine, [5-^3H]-uridine, L-[4,5-^3H]-leucine, or D-[2,3-^3H]-alanine into DNA, RNA, protein, or cell wall (peptidoglycan), respectively. Inhibition of radiolabeled precursor incorporation by 2 at a concentration of half the MIC was compared with those of known inhibitors of each pathway (ciprofloxacin, rifampicin, tetracycline, and fosfomycin, respectively).
The mode of action of 2 was investigated by macromolecular synthesis assays in S. aureus in the logarithmic phase (Miller, A A et al. Antimicrob. Agents Chemother. 52, 2806-12 (2008)), which monitor incorporation of radiolabeled precursors [methyl-^3H]-thymidine, [5-^3H]-uridine, L-[4,5-^3H]-leucine, or D-[2,3-^3H]-alanine into DNA, RNA, protein, or cell wall (peptidoglycan), respectively.
The incorporation of radiolabeled precursors—[methyl-^3H]-thymidine, [5-^3H]-uridine, L-[4,5-^3H]-leucine, or D-[2,3-^3H]-alanine—into DNA, RNA, protein, or peptidoglycan, respectively, in logarithmically growing S. aureus (ATCC 29213) was measured using a previously published method, with aliquots taken every 20 min over a 120-min incubation period (Wilson et al., Antimicrob. Agents Chemother. 39, 1925-33 (1995)).

T1 sequence (Q53707 entry or part of it): as above

## N#Cc1ccc(/C=C/c2nc3ccccc3c(=O)n2-c2cccc(C(=O)O)c2)cc1.[Na] [Compound 2, Sodium (E)-3-(3-carboxyphenyl)-2-(4-cyanostyryl)quinazolin-4(3H)-one]
PBP2a
  IC50: 336 µM
S. aureus NRS123; NRS123
  MIC: 2 µg/mL
S. aureus NRS123; NRS123, read-out: MIC NRS123
  MIC: 4 µg/mL
S. aureus NRS120; Staphylococcus aureus, NRS120
  MIC: 8 µg/mL
S. aureus NRS120; Table 2.1, S. aureus NRS120
  In vitro AB activity (MIC): 8 µg/mL
PBP2a allosteric site
  Kd: 16.3 µM
S. aureus VRS2; Staphylococcus aureus, VRS2
  MIC: 2 µg/mL
S. aureus VRS2; Table 2.1, S. aureus VRS2
  In vitro AB activity (MIC): 2 µg/mL
S. aureus NRS128
  In vitro AB activity (MIC): 4 µg/mL
Plasma stability
  half-life at 20 μM: 141 h
S. aureus (ATCC 29213)
  Effect on replication, transcription, or translation: did not significantly affect
  Inhibition of cell-wall (peptidoglycan) biosynthesis: 51±12%
